{"source": "paper PMC7287031", "about": "(Pharmacology Research & Perspectives, 2020)", "key": {"[1]": {"assay": "In vitro plasma protein binding (ultrafiltration), dog", "format": "in vitro ADME", "settings": "100 and 1000 ng/mL", "protocol": "Stock solutions were spiked into plasma to achieve the intended concentrations. After incubation for 1 hour at 37°C under constant gentle agitation, the spiked plasma samples (n = 3) were centrifuged (2000 g, 10 min, 37°C) in pre‐warmed Centrifree devices. Total radioactivity was determined in the ultrafiltrate (Cu, concentration of unbound compound) and in the sample introduced into the reservoir before ultrafiltration (Cp). The unbound (fu) and the bound (fb) fraction in plasma were calculated as follows: fu (%) = Cu/Cp × 100; fb (%) = 100‐Fu (%)."}, "CYP3A5": {"biological_target": "T1, CYP3A5 (Homo sapiens, UniProt P20815)", "T1 construct": "purchased BD Biosciences", "T1 sequence (P20815 whole entry)": "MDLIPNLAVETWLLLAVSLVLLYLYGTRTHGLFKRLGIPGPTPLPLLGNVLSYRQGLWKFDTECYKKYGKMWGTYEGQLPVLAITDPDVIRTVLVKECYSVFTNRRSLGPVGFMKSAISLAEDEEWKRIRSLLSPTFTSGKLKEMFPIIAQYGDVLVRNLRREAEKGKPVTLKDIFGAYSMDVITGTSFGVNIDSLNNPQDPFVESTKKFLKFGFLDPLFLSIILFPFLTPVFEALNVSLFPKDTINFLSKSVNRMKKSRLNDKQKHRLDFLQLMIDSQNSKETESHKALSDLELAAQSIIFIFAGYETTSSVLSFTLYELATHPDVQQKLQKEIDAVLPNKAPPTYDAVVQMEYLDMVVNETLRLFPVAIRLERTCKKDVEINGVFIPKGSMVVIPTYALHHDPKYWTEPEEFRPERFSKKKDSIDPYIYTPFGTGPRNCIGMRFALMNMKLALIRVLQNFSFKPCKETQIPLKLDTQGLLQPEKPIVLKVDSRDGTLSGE", "assay": "Enzyme kinetics with recombinant CYP3A5 and scaling to HLM", "format": "in vitro ADME", "protocol": "(§1) In vitro incubations were carried out in 100‐mM potassium phosphate buffer (pH 7.4) and 5‐mM MgCl2 with a total volume of 200 µL. Substrate and either human liver microsomes (HLM, BD Biosciences, mixed gender pool of n = 50) or recombinant human enzymes (BD Biosciences) were added and pre‐incubated for 3 minutes at 37°C. The reaction was started by addition of a fresh solution of NADPH (1 mmol/L final concentration). The samples were incubated at 37°C with agitation of 500 rpm. For incubations with CYP2A6, CYP2C9, CYP2C18, and CYP4A11, the phosphate buffer was replaced by TRIS buffer (100 mmol/L, pH 7.4) and for flavin‐containing monooxygenases (FMOs), a glycine buffer (50 mM, pH 9.5) was used.\n(§2) The enzymatic reaction was stopped and the protein was precipitated by addition of an equal volume of methanol. After 30 min at −80°C, the samples were centrifuged at 30'000 x g for 15 min. The supernatant was withdrawn. Aliquots were analyzed by LSC and the supernatant was diluted with water to obtain a final solution containing less than 20% of the organic solvent. For samples of low substrate concentration, supernatants were evaporated to dryness under nitrogen, then re‐suspended in water containing less than 20% of methanol. Samples were analyzed by HPLC combined with radiodetection. […]"}, "[2]": {"assay": "Human ADME study: quantitative metabolite profiling in urine and feces", "format": "in vivo", "settings": "pooled excreta n=6, from metabolite patterns (radio profiling)", "protocol": "Average pools across the six subjects were also created by combining equal percentages (of total urine and feces excreted over the time interval) of the individual subject pools. Urine pools were analyzed directly for metabolite profiling (column recovery of a representative sample was measured), whereas feces pools were subjected to extraction. Specifically, to each aliquot of feces homogenate, two volumes of acetonitrile were added. After centrifugation, the pellet was washed further with an additional two volumes of acetonitrile. […] All washes were combined, evaporated under nitrogen, and reconstituted with a solution of 15‐mM ammonium formate (pH 3.5). This feces extract reconstitute was analyzed for metabolite profiling. Combined extraction and reconstitution (overall recovery) and column recovery were measured. […] The HPLC column used was a Phenomenex Kinetex, C18, 250 × 4.6 mm, equipped with a pre‐column of the same type (2.1 × 4.6 mm), which was placed in a column oven at 40°C. […] The HPLC gradient was as follows: initial conditions were 5% mobile phase B for 1 minute, then increased to 20% at 10 minutes post injection where it was held (isocratic) up to 20 minutes. […] The post column flow was directed to the fraction collector operated in a time‐slice mode and containing 96‐well Lumaplates (Perkin Elmer). The plates were dried at room temperature and the radioactivity was measured using a microplate scintillation counter model TopCount NXT (Perkin Elmer) instrument (up to 3 × 100‐minute counting time). […] Metabolites were identified during the same injections using data generated by the high‐resolution mass spectrometer. The molecular ions and key fragments of each drug‐related component were determined. Key fragments for each metabolite were derived from their product ion mass spectra and were used to determine the metabolite structures. Where possible, structural assignments were supported by exact mass measurement, comparison with synthetic standards and/or Hydrogen/Deuterium (H/D) exchange LC‐MS(/MS)."}, "CYP2J2": {"biological_target": "T2, CYP2J2 (Homo sapiens, UniProt P51589)", "T2 construct": "purchased BD Biosciences", "T2 sequence (P51589 1-502)": "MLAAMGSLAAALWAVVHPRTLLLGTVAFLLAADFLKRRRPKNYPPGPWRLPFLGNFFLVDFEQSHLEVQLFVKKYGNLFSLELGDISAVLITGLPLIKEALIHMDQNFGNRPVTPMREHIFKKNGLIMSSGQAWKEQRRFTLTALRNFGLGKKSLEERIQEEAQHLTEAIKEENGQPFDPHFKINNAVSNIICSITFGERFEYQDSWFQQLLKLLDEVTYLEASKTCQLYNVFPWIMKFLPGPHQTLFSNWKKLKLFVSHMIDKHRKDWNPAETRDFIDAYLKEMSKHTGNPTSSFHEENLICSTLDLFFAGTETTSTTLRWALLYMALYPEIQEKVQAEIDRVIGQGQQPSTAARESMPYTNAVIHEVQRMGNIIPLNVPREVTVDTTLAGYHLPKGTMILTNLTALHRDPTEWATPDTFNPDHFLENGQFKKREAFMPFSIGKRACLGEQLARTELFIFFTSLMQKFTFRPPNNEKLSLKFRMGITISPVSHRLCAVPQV", "assay": "Enzyme kinetics with recombinant CYP2J2 and scaling to HLM", "format": "in vitro ADME", "protocol": "as §1, §2"}, "[3]": {"assay": "Enzyme kinetics of total oxidative metabolism in pooled human liver microsomes", "format": "in vitro ADME", "settings": "both sexes, human, pooled human liver microsomes, pH 7.4; pooled HLM, Michaelis-Menten model", "protocol": "as §1\n(§3) The enzymatic reaction was stopped and the protein was precipitated by addition of an equal volume of methanol. After 30 min at −80°C, the samples were centrifuged at 30'000 x g for 15 min. The supernatant was withdrawn. Aliquots were analyzed by LSC and the supernatant was diluted with water to obtain a final solution containing less than 20% of the organic solvent. […] Samples were analyzed by HPLC combined with radiodetection.\n(§4) Km and Vmax parameters were calculated by using SigmaPlot Version 8.0, Enzyme Kinetics module Version 1.1 software (SPSS Science Inc, Chicago, IL, USA). The intrinsic clearance was calculated by the equation: CLint = Vmax/Km."}, "human liver microsomes": {"test_system": "human liver microsomes", "assay": "Enzyme kinetics of total oxidative metabolism in pooled human liver microsomes", "format": "in vitro ADME", "settings": "pooled HLM, Michaelis-Menten model", "protocol": "as §1, §3, §4"}, "CYP3A4": {"biological_target": "T3, CYP3A4 (Homo sapiens, UniProt P08684)", "T3 construct": "purchased BD Biosciences", "T3 sequence (P08684 whole entry)": "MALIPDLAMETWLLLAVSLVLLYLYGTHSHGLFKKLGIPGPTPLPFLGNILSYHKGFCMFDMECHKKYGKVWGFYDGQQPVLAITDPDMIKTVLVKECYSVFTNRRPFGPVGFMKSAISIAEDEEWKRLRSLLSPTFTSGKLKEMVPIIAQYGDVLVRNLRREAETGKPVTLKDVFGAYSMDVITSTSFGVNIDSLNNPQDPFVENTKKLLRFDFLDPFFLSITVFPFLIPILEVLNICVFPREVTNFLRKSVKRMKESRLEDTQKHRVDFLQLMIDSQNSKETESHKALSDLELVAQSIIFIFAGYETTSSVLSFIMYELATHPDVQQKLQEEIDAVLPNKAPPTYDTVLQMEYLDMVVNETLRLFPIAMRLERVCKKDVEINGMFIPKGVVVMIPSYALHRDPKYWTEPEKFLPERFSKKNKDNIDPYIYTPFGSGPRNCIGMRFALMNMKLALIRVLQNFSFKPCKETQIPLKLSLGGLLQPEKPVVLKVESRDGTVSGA", "assay": "Enzyme kinetics with recombinant CYP3A4 and scaling to HLM", "format": "in vitro ADME", "protocol": "as §1\nThe enzymatic reaction was stopped and the protein was precipitated by addition of an equal volume of methanol. […] The supernatant was withdrawn. Aliquots were analyzed by LSC and the supernatant was diluted with water to obtain a final solution containing less than 20% of the organic solvent. For samples of low substrate concentration, supernatants were evaporated to dryness under nitrogen, then re‐suspended in water containing less than 20% of methanol. Samples were analyzed by HPLC combined with radiodetection."}}}
{"molecule": "CN(C)C(=O)c1cc2cnc(Nc3ccc(N4CCNCC4)cn3)nc2n1C1CCCC1", "note": "[ribociclib, Ribociclib]", "values": [{"measurement": "fraction unbound at 1 h", "setting": "[1]", "result": "0.34 ± 0.01"}, {"measurement": "fm,CYP", "setting": "CYP3A5; CYP3A5, share of total CYP-mediated metabolism in HLM", "result": 1.2, "unit": "%"}, {"measurement": "fumic", "setting": "CYP3A5; CYP3A5 incubation", "result": 0.87}, {"measurement": "Excretion (% of dose), Feces", "setting": "[2]", "result": "17.3 % of dose"}, {"measurement": "fm,CYP", "setting": "CYP2J2; CYP2J2, share of total CYP-mediated metabolism in HLM", "result": 0.8, "unit": "%"}, {"measurement": "fumic", "setting": "CYP2J2; CYP2J2 incubation", "result": 0.86}, {"measurement": "Km", "setting": "[3]", "result": "29.1 ± 1.8", "unit": "µM"}, {"measurement": "Vmax, total metabolism", "setting": "human liver microsomes", "result": "766 ± 13", "unit": "pmol/min/mg"}, {"measurement": "fm,CYP", "setting": "CYP3A4; CYP3A4, share of total CYP-mediated metabolism in HLM", "result": 97, "unit": "%"}, {"measurement": "fumic", "setting": "CYP3A4; CYP3A4 incubation", "result": 0.83}, {"measurement": "Vmax", "setting": "CYP3A4; recombinant CYP3A4, substrate inhibition model", "result": "12.3 ± 5.2", "unit": "pmol/min/pmol"}]}
